Measurements: patent US5958966A, “Treatment of aberrant cellular states with biomodulators” (University of New Mexico, priority 1995, dated 1999)
“Also recorded” adds a separate entry of the source. Read-outs that look alike come from different tables or passages of the source.

Tests used:
[1] = tested on: T-independent antigen (TNP-Ficoll) response; experiment: in vivo humoral response to TNP-Ficoll (plaque assay); set-up: species or system mouse; conditions: mice
Method: In this case both IgM and IgG hapten specific responses were recorded as well as non-antigen specific plaque responses (Ig-PFC) using a Protein A coated red blood cell target.
The TNP-Ficoll antigen is administered as the SRBC antigen was above, by i.p. injection and the response assessed by conjugating the TNP hapten directly to the SRBC target, thus obviating any potential "carrier" effect. […] In this case, a third experimental parameter has been added to the study, the production of non-specific immunoobulin (Ig-PFC). This parameter provides information on the general status of the humoral response regardless of antigen specificity. The TNP-Ficoll antigen does elicit a modest Ig-PFC response but little if any IgG specific response. […] In this case there is a very large specific and non-specific augmentation.

[2] = tested on: human peripheral blood leukocytes (HPBL); experiment: stimulation / inhibition of IgG production in HPBL; assay type: cell-based; conditions: for activation at 0.1 µM: Homo sapiens, Leukocyte, 90 h
Method: Human peripheral blood leukocytes were cultured in a standard tissue culture medium. Aliquots of these cultured cells (1,000,000 cells/ml medium) were cultured for 6 hours, and the specified amount of Formula II compound was added; the cells were then cultured for an additional 90 hours. Sheep red blood cells (SRBC) conditioned with class-specific (IpG) goat anti-human antiserum (1:400) for 2 hours; then guinea pig complement (2%) for 2 hours were conjugated to Protein A as described in detail in Radioimmunoimaging and Radioimmunotherapy, Eds. S. W. Burchiel and B. A. Rhodes, Elsevier Science Publishing; New York, 1983, pp. 125-127, incorporated herein by reference.

Canine glioma cells = experiment: generation time of canine glioma cells (Formula II compound); assay type: cell-based; conditions: for Tg: control 18.6
Method: The cells were harvested every 72 hours after the controls had reached 85% confluency. Generation time (Tg) was determined as the number of hours required for the cell population to double.
Mean of triplicate determinations. Canine glioma cells were grown under conditions to promote exponential growth characteristics; 2×10^5cells in a T-25 flask. The cells were harvested every 72 hours after the controls had reached approximately 85% confluency. The drug was added at the initiation of culture in DMSO, the control cultures had just DMSO. The drug concentration was adjusted with DMS0 so that the final concentration of DMS0 was always 0.5%.

[3] = tested on: human colon carcinoma cell line (LS-174); experiment: generation time of LS-174 human colon carcinoma cells; assay type: cell-based; conditions: for Tg: control 26.5
Method: The procedure of Example VA, above, was repeated except a human colon carcinoma cell line (LS-174) was used instead of the canine glioma cell line.
Mean of triplicate determinations. LS-174 cells (human colon carcinoma) were grown under conditions to promote exponential growth characteristics; 2×10^5 cells in a T-25 flask. The cells were harvested every 72 hours after the controls had reached approximately 85% confluency. The drug was added at the initiation of culture in DMSO, the control cultures had just DMS0. The drug concentration was adjusted with DMSO so that the final concentration of DMS0 was always 0.5%.

canine glioma tumors = canine glioma tumors in nude rats; assay type: in vivo, nude rat
Method: C57 BL/6 mice were injected I.M. with B-16 melanoma cells, maintained in culture in the right flank or shoulder. Tumor growth was monitored on a daily basis by physical measurement and by MRI/MRS on a weekly basis. Treatment routes were via intraperitoneal injection using various CAD between 1 μg and 0.001 μg per animal on a M, W, F injection schedule. The animals were terminated by CO2 when the tumors had become 1.0 cm in diameter. Lung metastases were counted.
Various biomodulators were tested in vivo for their effects on canine glioma tumors established and monitored as above for mice, but in nude rats.
The histology stain toluidine blue is in the lower right hand position for orientation.

HPBL / IMR-90 cells = experiment: biomodulator assay; assay type: cell-based, human
Description: a. Biomodulators cause, at a concentration in the general range of 100 pM-1 μm, the differentiation of lymphocytes. This differentiation can be detected by, for example, the increased production of specific and non-specific antibodies in response to the presence of biomodulator in the culture medium, e.g., according to the HPBL method discussed above in C, or the alteration in the class of antibodies being produced by a cell line, e.g., from IgM to IgG, e.g., according to the method disclosed in the same reference.
b. Biomodulators cause, at a concentration in the general range of 100 pM-1 μm, the alteration of the cell surface oligosaccharide display of IMR-90 cells in culture as discussed in A. above.
Activity in both of these assays is a necessary and sufficient measure of whether or not a given substance is a biomodulator, as defined herein.

P-815 mastocytoma cells = experiment: P-815 cytotoxic T lympholysis / cell mediated lympholysis; assay type: cell-based, mouse; conditions: hydrocortisone 2 mg day -2; hydroxyurea 10^-5 M
Method: In this case the P-815 is injected into the H-2 incompatible host and in the Brunner and Cerotini model an antigen specific lympholysis event occurs with an optimum on day 11 at an effector/target ratio of 100:1 with 30% lysis. If the spleens of the injected animals are removed on day three there is no observable cytotoxicity; however, if the spleen cells are treated with biomodulator (in this case PWM at 100 ng) there is an enormous increase in the cytotoxicity event. […] Our model involves at least seven point cytotoxicity curves and for comparison purposes we calculate the slope, intercept and correlation coefficients, and then use that data for further analyses. The slope represents a measure of the efficiency of kill and in the biomodulator treated cells is approximately […] versus 0.24 for the control antigen driven response on day 11. This represents a seven fold increase in simple cytotoxicity efficiency. […]
P 815 mastocytoma cells are grown in culture or as an ascites (DBA H-2/d) and injected into C57BL/6J mice (H-2/b). […] The specificity of the response is assessed by testing the cytotoxicity against EL-4 cells ([…]) which are NK insensitive and histoincompatible with the original target. […]
Seven effector/target ratios are tested and the percent lysis calculated. […]

canine glioma = canine glioma implanted in dog brain (Formula II / TF compounds); assay type: in vivo
Method: Canine glioma was implanted surgically into the brains of four outbred dogs (2×10^6 cells). This procedure normally causes death by tumor growth in 14-28 days. […]
Tumor progress was assessed at weekly intervals by NMR, employing GdDTPA as imaging agent. This method illuminates vascularization at the surface of the tumor, and provides images which correlate well with neuropathological observations.

canine glioma (CG) cells = experiment: cell surface oligosaccharide display of canine glioma cells (lectin binding, Scatchard, Gibb's Free Energy); assay type: cell-based
Description: Taken together these affinity differences account for almost 10 kcal of additional binding energy retrievable from interactions in the case of the IMR-90s which is unavailable to the CGs. […] This treatment regimen results in an increase in the Tg of the cells as well as changes in the proton linewidth of unfrozen water (shown below). […] This display more closely resembles that of the growth regulated IMR-90s. It should be noted that the actual lines on these figures are visual estimates however, the data in the boxes are calculated values. It is these values that are used to estimate the GFE for comparison purposes.
The cell surface oligosaccharide display was assessed by methods developed previously. In brief, cells from a sub-culturing were aliquotted into 96 well trays at 5×10^5 cells per ml, 100 μL aliquots. After 16 hours of culture the cells were washed, fixed, and blocked with 0.1% BSA/PBS. Optimal lectin concentrations (5 μg/ml)were used to give 80 to 90% saturation of the available sites. Three carbohydrate ligands at 10 μg concentrations in triplicate or quadruplicate were then used to prepare competition curves for the lectin binding. The Bound over Free (B/F) ratio was calculated and the Ligand microprocessor program was used to determine the optimal fit of the data to a polynomial generated model. The Gibb's Free Energy (GFE) was calculated from the Scatchard data on the competition assay by the following equation: GFE=-RT 1n Kequit. The proton NMR linewidth measurements were conducted as described previously.

[4] = 10 nM, 12 × 4 h (so in the source)
[5] = 1 ng/kg I.P. begun same day as implantation
[6] = pre-treated, 10 ng/kg I.P. M, W, F

## Dextran
[1]
  PFC response to TNP-Ficoll: some stimulatory effect; also recorded: marked cellular proliferation but little differentiative response

## CC(C)OC(=O)C[C@H](O)C[C@@H](O)/C=C/c1c(C(C)C)nc(-c2ccccc2)n1-c1ccc(F)cc1 (relative stereo) [Compound IIe']
[2]; 1&100 nM
  Stimulation of IgG Production: 1990%
[2]; HPBL
  IgG production in words: stimulated IgG production
[2]; lower concentrations (100 nM), read-out: enhancement of IgG production
  activation at 0.1 µM: < 350%
Canine glioma cells; 10 nM, 72x2 h
  % Change (Tg): 129%
  Tg: 24.0 h
Canine glioma cells; 10 nM, 72x3 h
  % Change (Tg): 180%
  Tg: 33.4 h
Canine glioma cells; 10 nM, 72x4 h
  % Change (Tg): 155%
  Tg: 28.9 h
Canine glioma cells; 10 nM, 72 h
  % Change (Tg): 136%
Canine glioma cells; cells approaching confluency
  contact inhibition: showed evidence of contact inhibition as the cells approached confluency
Canine glioma cells; three passages, 10 nM
  slowing of the growth rate: 1.8 fold
[3]; [4]
  % Change (Tg): 414%
  Tg: 109.6 h
[3]; 10 nM, 72 × 2 h
  % Change (Tg): 400%
  Tg: 106.2 h
[3]; 10 nM, 72 × 3 h
  % Change (Tg): 416%
  Tg: 110.3 h
[3]; 10 nM, 72 h
  % Change (Tg): 320%
[3]; three passages, 10 nM
  prolongation of generation time: 4.16 fold
[3]; two passages, data not shown
  generation time after drug withdrawal: returned to control levels

## CC(C)OC(=O)C[C@H](O)C[C@H](O)/C=C/c1c(C(C)C)nc(-c2ccccc2)n1-c1ccc(F)cc1 [HHD-3]
Canine glioma tumors
  effect on tumor growth: showed no regression effect, just delay of the control growth pattern

## CC(C)OC(=O)C[C@H](O)C[C@H](O)/C=C/c1c(C(C)C)nc(-c2ccccc2)n1-c1ccc(F)cc1 [IId]
[2]; 100 nM, read-out: Stimulation of IgG Production
  activation at 0.1 µM: 320%

## Cc1c(/C=C/C(O)CC(O)CC(=O)O)ccc2c1C(O)CC(C)C2 (stereo not drawn) [colletruncoic acid]
HPBL / IMR-90 cells
  biomodulator activity: has been shown to have biomodulator activity

## C[C@]12CCC(=O)C=C1CC[C@@H]1[C@@H]2[C@@H](O)C[C@@]2(C)[C@H]1CC[C@]2(O)C(=O)CO [Hydrocortisone]
P-815 mastocytoma cells
  influence on the biomodulator effect on CML: reduced the biomodulator effect

## CC(C)c1c(/C=C/C(O)CC(O)CC(=O)O)n(-c2ccc(F)cc2)c2ccccc12 (stereo not drawn) [TF-004]
Canine glioma; [5]
  complete regression by day: ≤ 21 days
  substantial regression by day: ≤ 15 days
Canine glioma; treatment begun on Day 11
  complete regression by day: ≤ 30 days
  substantial regression by day: ≤ 21 days

## NC(=O)NO [Hydroxyurea]
P-815 mastocytoma cells
  influence on the biomodulator effect on CML: does not inhibit the biomodulator effect on CML

## O[C@H]1[C@H]2[C@H](O)CCCN2C[C@H]1O [Swainsonine (Sw)]
Canine glioma (CG) cells
  exposure time for increase in GFE: approximately 300 hours

## CC(C)OC(=O)C[C@H](O)C[C@@H](O)/C=C/c1c(C(C)C)nc(-c2ccccc2)n1-c1ccc(F)cc1 [HHD-7]
Canine glioma tumors
  effect on tumor growth: showed the best regression

## CC(C)c1nc(-c2ccccc2)n(-c2ccc(F)cc2)c1/C=C/[C@H](O)C[C@H](O)CC(=O)O [TF-002]
Canine glioma; later studies, data not shown
  later tumor status: free of tumor
Canine glioma; [6]
  day of appearance of small tumor: 12 days
  tumor regressed by day: ≤ 19 days
